Bridge positions count the residues as written; N and C are the ends. Square brackets hold non-standard residues; d marks the D form. Peptide text beside a SMILES is read from it. Trp(1-Me) = Cn1cc(C[C@H](N)C(=O)O)c2ccccc21; 1Nal = N[C@@H](Cc1cccc2ccccc12)C(=O)O; 2Nal = N[C@@H](Cc1ccc2ccccc2c1)C(=O)O; αMeL = CC(C)C[C@](C)(N)C(=O)O; Aib = CC(C)(N)C(=O)O
Assays:
human IL-23R = target: T1, human IL-23R (Homo sapiens, UniProt Q5VWK5); assay: Human ELISA IL-23/IL-23R binding inhibition; conditions: human IL-23 coated, recombinant human IL-23R-Fc chimera
T1 sequence (Q5VWK5 24-355 limits assumed): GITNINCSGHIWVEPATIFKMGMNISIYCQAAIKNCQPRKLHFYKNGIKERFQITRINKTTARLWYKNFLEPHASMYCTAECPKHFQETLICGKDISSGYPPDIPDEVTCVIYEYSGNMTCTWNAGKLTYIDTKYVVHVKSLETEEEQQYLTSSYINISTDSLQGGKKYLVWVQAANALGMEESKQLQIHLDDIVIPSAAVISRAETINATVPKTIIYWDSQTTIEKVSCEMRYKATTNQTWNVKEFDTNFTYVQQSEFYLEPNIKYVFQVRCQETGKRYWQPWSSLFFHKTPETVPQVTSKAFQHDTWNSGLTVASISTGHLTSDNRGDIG
Protocol: Antagonism of peptide compounds for human interleukin-23 receptor inhibitors, was determined by an ELISA assay.
A 384-well plate was coated with 50 μl/well of human IL-23 at a final concentration of 1 μg/ml and incubated overnight at 4° C. The wells were washed 3 times with 80 μl wash buffer and blocked with 80 μl blocking buffer for 60 minutes at room temperature and washed again. 20 μl of serially diluted test peptides was added to each well and subsequently 20 μl of recombinant human IL-23R-Fc chimera at final concentration of 0.1 μg/ml. The plate was incubated for 60 minutes at room temperature. After the wells were washed, bound IL-23R-Fc was detected with goat anti-hu-lgG1-HRP antibody. Signals were visualized with QuantaBlu Fluorogenic Peroxidase Substrate.

[1] = tested on: IL-23 induced STAT3 signaling; assay: Inhibition of IL-23 induced STAT3 signaling in HEK-Blue IL-23 cells (SEAP reporter); assay type: cell-based; conditions: human IL-23 0.25 ng/ml, read-out: Inhibition of IL-23 induced pSTAT3 (IC50 nM)
Excerpt: HEK-Blue™ IL-23 cells (Invivogen) are designed for the detection of bioactive human (hIL-23) and murine IL-23 (mIL-23) by monitoring the activation of the STAT3 pathway. Binding of IL-23 to its receptor on the surface of HEK-Blue™ IL-23 cells triggers a signaling cascade leading to the activation of STAT3 and the subsequent production of secreted embryonic alkaline phosphatase (SEAP). This can be readily assessed using QUANTI-Blue™ Solution, a SEAP detection reagent.
HEK-Blue™ IL-23 cells were cultured as described by Invivogen.
On the first day of assay 10 μL of the HEK-Blue IL-23 cell suspension (final concentration: 10,000 cells/well) and 10 μl of serially diluted compound solutions were dispensed into a 384-well assay plate. After pre-incubation of the reaction mixtures at 37° C./5% CO2/95% humidity for 60 minutes, 10 μl of the humanIL-23 cytokine (final concentration: 0.25 ng/ml) was added to each well for the STAT3 signaling activation. The plate was incubated overnight at 37° C./5% CO2/95% humidity.
On the second day 20 μl per well of Quanti-Blue detection solution (prepared according to the manufacture instruction) was dispensed into a new 384-well plate and followed by the transfer of 5 μl supernatant of the overnight incubated cell/sample mixtures. After incubation of 45 min at room temperature signals were measured with PHERAstar (BMG) at OD 620-655 nm.
Dose response data were fitted with XLfit.

[2] = Chemical stability (relative purity loss) of peptide compounds in buffer formulations; assay type: physicochemical
Protocol: Purity of a compound batch was determined through UHPLC/MS prior to chemical stability measurement using Method A.
For stability assessment, the target concentration was 300 μM pure compound. Therefore, solutions from solid samples were prepared in the following buffer systems with a concentration of ~300 µM compound based on the previously determined % purity. The solid samples were obtained by drying down aliquots of a freshly prepared acetonitrile stock solution using a THERMO SPEEDVAC vacuum centrifuge. The dry down time was 3 hours.
The following buffer systems were applied: • Solubility buffer system A) 100 mM phosphate buffer pH 7.4. • Solubility buffer system B) 100 mM phosphate buffer pH 6.5. • Solubility buffer system C) 100 mM HCl pH 1.2.
Prepared solutions were filtered through […] pore size and filled into sterilized glass containers under laminar flow conditions.
[…] After this time course, the samples were centrifuged for 15 min at 2500 RCF. Then 1.5 μl of the undiluted supernatant were analysed with UHPLC-UV.
The chemical stability was rated through the relative loss of purity calculated by the equation:
[(purity after 0 hours at 37° C.)(purity after 24 hours at 37° C.)]/(purity after 0 hours at 37° C.)]*100%.
The purity is calculated as [(peak area peptide)/(total peak area)]*100%.
Buffer composition: 100 mM HCl pH 1.2, 100 mM phosphate buffer pH 6.5, 100 mM phosphate buffer pH 7.4

[3] = pH 6.5 (100 mM phosphate buffer)
[4] = pH 7.4 (100 mM phosphate buffer)

| IC50 (human IL-23R) [nM] | IC50 [1] [nM] | Conc. [mg/ml] 0 h ([2]; pH 1.2 (100 mM HCl)) [mg/mL] | Conc. [mg/ml] 24 h 37° C. ([2]; pH 1.2 (100 mM HCl)) [mg/mL] | Mass Balance [%] 24 h 37° C. ([2]; pH 1.2 (100 mM HCl)) [%] | Relative Purity Loss [%] 24 h 37° C. ([2]; pH 1.2 (100 mM HCl)) [%] | Conc. [mg/ml] 0 h [2, 3] [mg/mL] | Conc. [mg/ml] 24 h 37° C. [2, 3] [mg/mL] | Mass Balance [%] 24 h 37° C. [2, 3] [%] | Relative Purity Loss [%] 24 h 37° C. [2, 3] [%] | Conc. [mg/ml] 0 h [2, 4] [mg/mL] | Conc. [mg/ml] 24 h 37° C. [2, 4] [mg/mL] | Mass Balance [%] 24 h 37° C. [2, 4] [%] | Relative Purity Loss [%] 24 h 37° C. [2, 4] [%] | Compound |
| --- | --- | --- | --- | --- | --- | --- | --- | --- | --- | --- | --- | --- | --- | --- |
| 1.21 | 385 | – | – | – | – | – | – | – | – | – | – | – | – | COc1ccc(C[C@@H]2NC(=O)[C@H](CCCNC(=N)N)NC(=O)[C@H](CCC(N)=O)NC(=O)[C@H](Cc3cn(C)c4ccccc34)NC(=O)[C@H]([C@@H](C)O)NC(=O)[C@H](CC(N)=O)NC(=O)[C@H](NC(C)=O)CCCCNC(=O)C[C@@H](C(=O)N[C@@H](CC(N)=O)C(=O)N[C@@H](CC(N)=O)C(N)=O)NC(=O)[C@](C)(CC(C)C)NC(=O)[C@H](Cc3ccc4ccccc4c3)NC2=O)cc1 [compound 24] (Ac-[dK]NT[Trp(1-Me)]QRY(Me)[2Nal][αMeL]DNN-NH2; lactam 1-10) |
| 1.95 | 432 | – | – | – | – | – | – | – | – | – | – | – | – | COc1ccc(C[C@@H]2NC(=O)[C@H](CCCNC(=N)N)NC(=O)[C@H](CCC(N)=O)NC(=O)[C@H](Cc3c[nH]c4ccccc34)NC(=O)[C@H]([C@@H](C)O)NC(=O)[C@H](CC(N)=O)NC(=O)[C@H](NC(C)=O)CCCCNC(=O)CC[C@@H](C(=O)N[C@@H](CC(N)=O)C(=O)N[C@@H](CC(N)=O)C(N)=O)NC(=O)C(C)(C)NC(=O)[C@H](Cc3ccc4ccccc4c3)NC2=O)cc1 [compound 5] (Ac-[dK]NTWQRY(Me)[2Nal][Aib]ENN-NH2; lactam 1-10) |
| – | 1610 | 1.5 | 1.1 | −1.9 | 22.3 | 1.2 | 1.2 | −1.8 | 1.2 | 1.5 | 1.4 | −3.2 | 2.6 | COc1ccc(C[C@@H]2NC(=O)[C@H](CCCNC(=N)N)NC(=O)[C@H](CCC(N)=O)NC(=O)[C@H](Cc3c[nH]c4ccccc34)NC(=O)[C@H]([C@@H](C)O)NC(=O)[C@H](CC(N)=O)NC(=O)[C@@H](NC(C)=O)CCCCNC(=O)C[C@@H](C(=O)N[C@@H](CC(N)=O)C(=O)N[C@@H](CC(N)=O)C(N)=O)NC(=O)C(C)(C)NC(=O)[C@H](Cc3cccc4ccccc34)NC2=O)cc1 [compound 9] (Ac-KNTWQRY(Me)[1Nal][Aib]DNN-NH2; lactam 1-10) |
| 14.9 | 6590 | – | – | – | – | – | – | – | – | – | – | – | – | COc1ccc(C[C@@H]2NC(=O)[C@H](CCCNC(=N)N)NC(=O)[C@H](CCC(N)=O)NC(=O)[C@H](Cc3c[nH]c4ccccc34)NC(=O)[C@H]([C@@H](C)O)NC(=O)[C@H](CC(N)=O)NC(=O)[C@H](NC(C)=O)CC(=O)NCCCC[C@@H](C(=O)N[C@@H](CC(N)=O)C(=O)N[C@@H](CC(N)=O)C(N)=O)NC(=O)C(C)(C)NC(=O)[C@H](Cc3ccc4ccccc4c3)NC2=O)cc1 [compound 12] (Ac-[dD]NTWQRY(Me)[2Nal][Aib]KNN-NH2; lactam 1-10) |
| – | 339 | 1.4 | 1.0 | −2.3 | 22.9 | 1.4 | 1.3 | −4.6 | 0.7 | 1.4 | 1.3 | −2.2 | 2.7 | CC(=O)N[C@@H]1CCCCNC(=O)C[C@@H](C(=O)N[C@@H](CC(N)=O)C(=O)N[C@@H](CC(N)=O)C(N)=O)NC(=O)C(C)(C)NC(=O)[C@H](Cc2ccc3ccccc3c2)NC(=O)[C@H](Cc2ccc(O)cc2)NC(=O)[C@H](CCCNC(=N)N)NC(=O)[C@H](CCC(N)=O)NC(=O)[C@H](Cc2c[nH]c3ccccc23)NC(=O)[C@H]([C@@H](C)O)NC(=O)[C@H](CC(N)=O)NC1=O [compound 4] (Ac-[dK]NTWQRY[2Nal][Aib]DNN-NH2; lactam 1-10) |
